In ChEMBL document CHEMBL1144967, “Protective effect of imidazolopyrazinone antioxidants on ischemia/reperfusion injury” (2003):

Legend:
[1] = Antioxidant efficiency of compounds was evaluated by the lag phase duration until onset of linoleate peroxidation induced by AAPH
Cricetinae gen. sp. = test: Ability to protect microvascular damages in ischemia/reperfusion (in vivo) was determined by measuring the inhibition of leaky sites, 30-min after the start of reperfusion at 30 mg/kg; format: functional, Cricetulus griseus; details: 0.5 h

Compound	Lag time [1]	inhibition in vivo at 30 mg/kg (Cricetinae gen. sp.)
COc1ccc(-c2nc3cnccn3c2O)cc1	79.6 min	85%
Oc1c(-c2ccc(F)cc2)nc2cnccn12	122 min	37%
Oc1c(-c2ccc(-c3ccccc3)cc2)nc2cnccn12	77.5 min	71%
Cc1ccc(-c2nc3cnccn3c2O)cc1	78.7 min	67%
Cc1c(C)c2c(c(C)c1O)CCC(C)(C(=O)O)O2 (stereo not drawn)	128 min	
Oc1c(-c2ccc(Cl)cc2)nc2cnccn12	111 min	82%
COc1cc(C(C)=O)ccc1O [APOCYNIN]		59%
Oc1c(-c2ccc3ccccc3c2)nc2cnccn12	74.9 min	57%
Cc1nc2cnccn2c1O	134 min	49%
Oc1c(-c2ccccc2)nc2cnccn12	146 min	79%
